Like-named read-outs stand apart in the source and are kept apart here.
Columns and labels:
HIV-1 NL4-3 (X4) [1] = test: microbe, parasite or virus in culture; type: cell-based; details: PHA-stimulated PBMCs, ten days post infection, p24 Ag ELISA, mean ± SEM; read-out: IC50 HIV-1 (X4) NL4-3 replication, PHA-stimulated PBMCs
Method: PHA-stimulated PBMCs at 5x10^5 cells per sample, pre-incubated with test compounds dissolved in cell culture medium containing IL-2 (2 ng/ml; […] After three days, fresh culture medium with IL-2 was added. Ten days post infection cell supernatant was collected for HIV-1 p24 core antigen enzyme-linked immunosorbent assay (ELISA; Perkin Elmer, Boston, MA, USA) according to the manufacturer’s protocol. In the antiviral assays, each condition was tested in duplicate.

CXCR4 [2] = molecular target: T1, CXCR4 (Homo sapiens, UniProt P61073); test: CXCL12^AF647 binding assay on Jurkat cells; details: Jurkat cells, 2.9 nM CXCL12^AF647, mean ± SEM; read-out: IC50 CXCL12-CXCR4 binding interaction
Method: In brief, Jurkat cells were washed twice in assay buffer [Hank’s Balanced Salt Solution (HBSS; Thermo Fisher Scientific), 20 mM HEPES buffer (Thermo Fisher Scientific), 0.2% bovine serum albumin (Sigma-Aldrich), pH 7.4]. […] Afterwards, cells were washed twice in assay buffer and subsequently fixed in 1% paraformaldehyde in Dulbecco’s phosphate buffered saline (DPBS). Samples were analyzed with the FACSArray flow cytometer (Becton Dickinson, NJ, USA). Data were further analyzed with the FlowJo Software (Ashland, Oregon, USA).

[3] = system: CXCR4-positive Jurkat cells; test: cells; type: cell-based, human; details: Jurkat cells, 6.25 nM CXCL12, two hours, mean ± SEM; read-out: IC50 Chemotaxis
Method: Jurkat cells were washed twice in assay buffer (see above), dispensed into a 96-well plate (5x10^5 cells per well) containing serial dilutions of compounds (in assay buffer) and incubated at RT in the dark for 10 minutes. […] Suspensions of 1.87x10^4 cells were transferred to the chemotaxis insert plate. […] After removal of the insert plate, migrated cells were centrifuged and resuspended in DPBS containing flow cytometry cell counting beads ([…] Fluorescent Particles; Gentaur, London, UK). Both migrated cells and particles were counted by flow cytometry (FACSCanto II; Becton Dickinson). Each compound concentration was tested in triplicate. Data were analyzed using the FlowJo software and the total number of migrated cells was calculated, according to the counted and total number of beads present in the sample.

CXCR4 [4] = molecular target: T1, CXCR4; test: Labeled CXCR4 monoclonal antibody binding (clones 12G5, 1D9), flow cytometry; design: CXCR4 receptors endogenously expressed on SUP-T1 cells; endogenous in cells; host or cells: SUP-T1 (ATCC); details: 12G5 clone and 1D9 clone, data not shown
Method: A feature of CXCR4, shared with many other GPCRs, is its internalization following agonist binding, also known as receptor endocytosis. To evaluate the potential inhibitory effect of the compounds on CXCR4 endocytosis, CXCR4 receptors endogenously expressed on SUP-T1 cells were first stained with a PE-labeled rat anti-human CXCR4 mAb targeting the receptor’s N-terminus (clone 1D9) and subsequently incubated with compound. […] In addition, when SUP-T1 cells were incubated with compound for thirty minutes at 4°C, and afterwards stained with the CXCR4 mAb (1D9) for thirty minutes at 4°C, no displacement (i.e. decrease in mAb binding) of the CXCR4 mAb was observed by flow cytometry (data not shown). […] In consequence, reduced cellular staining in our assay reflects the inhibitory effects of compounds on receptor internalization and not simply displacement of the CXCR4 mAb.

HIV-1 NL4-3 (X4) [5] = test: microbe, parasite or virus in culture; type: cell-based; details: MT-4 cells, four days post infection, MTS, mean ± SEM; read-out: IC50 HIV-1 (X4) NL4-3 replication, MT-4 cells
Method: The anti-HIV replication assays in MT-4 cells and PHA-stimulated PBMCs have been described previously. The HIV-1 T-tropic molecular clone NL4-3 (X4) was obtained from the National Institute of Allergy and Infectious Disease (NIAID) AIDS reagent program (Bethesda, MD, USA). Briefly, 5x10^4 MT-4 cells (in cell culture medium) were treated with different concentrations of compound at 37°C for 30 minutes. Afterwards, a 50% tissue culture infectious dose of the NL4-3 viral stock was added to the cell-compound mixtures. Four days post infection, the cytopathic effect was evaluated microscopically and cell viability was assessed with the MTS method, as described above.
In the antiviral assays, each condition was tested in duplicate.

CXCR4 [6] = molecular target: T1, CXCR4; test: CXCR4 internalization assay in SUP-T1 cells; type: cell-based; design: CXCR4 receptors endogenously expressed on SUP-T1 cells; endogenous in cells; host or cells: SUP-T1 (ATCC)
Method: T-lymphoblastic SUP-T1 cells were washed twice in DPBS containing 2% FBS. Afterwards, cells were first incubated with the PE-labeled rat anti-human CXCR4 mAb (clone 1D9; 2 μg/ml in DPBS/2% FBS; BD Pharmingen) on ice for 45 minutes. […] SUP-T1 cells were subsequently washed once with ice cold DPBS and twice with ice cold assay buffer (see above) before being treated with test compound on ice for 15 minutes. […] Samples were immediately analyzed with the FACSCalibur flow cytometer (Becton Dickinson) whereby the measured fluorescence corresponds to the amount of […] CXCR4 receptors. Data were further analyzed with the FlowJo software.

CXCR4 [7] = molecular target: T1, CXCR4; test: Calcium mobilization assay (FLIPR Tetra) in U87.CD4.CXCR4 cells; type: cell-based; details: U87.CD4.CXCR4 cells, 6.25 nM CXCL12, mean ± SEM; read-out: IC50 Calcium signaling (CXCL12-induced)
Method: U87.CD4.CXCR4 cells were seeded at 2x10^4 cells per well in gelatin-coated black-walled 96-well plates [0.1% gelatin in DPBS, incubated at RT for two hours and washed once with DPBS] and incubated at 37°C and 5% CO2 overnight. […] Fluo-2 AM loaded cells were washed with assay buffer before being incubated in the FLIPR Tetra system at 37°C for five minutes. At the start of the kinetic measurement, compounds were added to the cell plate by the internal robotic system followed by an incubation period of 10 minutes during which changes in the intracellular calcium level were continuously measured by the FLIPR Tetra. […] Each condition was measured in triplicate and repeated several times as further indicated (see Results).

CXCR4 [8] = molecular target: T1, CXCR4; test: CXCL12/CXCR4 interaction on SUP-T1 cells; type: binding; design: CXCR4 receptors endogenously expressed on SUP-T1 cells; endogenous in cells; host or cells: SUP-T1 (ATCC); details: high concentration, data not shown

T1 sequence (P61073 whole entry): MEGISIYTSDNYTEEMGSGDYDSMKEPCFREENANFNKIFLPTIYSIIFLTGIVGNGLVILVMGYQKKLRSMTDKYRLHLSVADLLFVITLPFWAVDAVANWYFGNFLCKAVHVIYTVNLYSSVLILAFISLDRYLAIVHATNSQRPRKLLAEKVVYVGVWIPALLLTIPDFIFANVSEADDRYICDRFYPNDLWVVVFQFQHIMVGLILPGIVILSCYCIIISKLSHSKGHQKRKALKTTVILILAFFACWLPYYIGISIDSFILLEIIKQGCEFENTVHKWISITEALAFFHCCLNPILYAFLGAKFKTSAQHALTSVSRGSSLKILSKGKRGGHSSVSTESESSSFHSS

SMILES: c1ccc(NCc2ccc(CNc3ccccn3)cc2)nc1 [WZ811]
- IC50 (HIV-1 NL4-3 (X4) [1]): 38.2 µM
- IC50 (CXCR4 [2]): > 100 µM
- IC50 [3]: > 100 µM
- reduction of labeled CXCR4 mAb binding (CXCR4 [4]): unable to reduce mAb binding
- IC50 (HIV-1 NL4-3 (X4) [5]): > 100 µM
- induction of CXCR4 internalization (agonistic effect) (CXCR4 [6]; 100 μM, in absence of CXCL12, data not shown): absence of an agonistic effect
- IC50 (CXCR4 [6]; SUP-T1 cells, 6.25 nM CXCL12, 37°C 30 minutes, mean ± SEM): > 100 µM
- IC50 (CXCR4 [7]): > 100 µM
- inhibition of the interaction between CXCL12 and CXCR4 (CXCR4 [8]): unable, even at high concentration, to inhibit the interaction between CXCL12 and CXCR4
